From patent US9931320B2, “Parasiticidal oral veterinary compositions comprising systemically-acting active agents, methods and uses thereof” (MERIAL INC., priority 2012, dated 2018)

How the values were obtained:
Dermacentor variabilis = assay: Long lasting efficacy against D. variabilis on dogs (Example 6, Table 53); type: in vivo
Protocol: (§1) Forty two beagles were allotted to seven groups of six dogs each. Groups 1 and 2 served as untreated controls. Groups 3, 4 and 5 were each treated on Day 0 with three different compositions of the invention described in Tables 30, 31 and 32, respectively, containing Compound A in an amount to deliver a dose of about 20 mg/kg of body weight. Similarly, on Day 0, Groups 6 and 7 were each treated with the compositions described in Tables 30 and 32, respectively, containing Compound A to deliver a dose of about 20 mg/kg of body weight.
(§2) Dogs in Groups 1, 3, 4 and 5 were infested with approximately 50 A. americanum and dogs in Groups 2, 6 and 7 were infested with approximately 50 D. variabilis on Days −1, 42, 56, 70, 77, 84, 91 and 98. Dogs in Groups 1, 2, 3, 6 and 7 were also infested on Day 105. Ticks were counted upon removal at approximately 48 hours post treatment on Day 2 and 48 hours post infestation on Days 44, 58, 72, 79, 86, 93, 100 and 107. Tables 52 and 53 below show the exceptional long-lasting efficacy of the inventive compositions against A. americanum and D. variabilis.

[1] = test system: fleas (Ctenocephalides felis); assay: Efficacy of soft chews against induced flea infestations on dogs (Example 2); type: in vivo; details: for % Reduction Fleas: soft chew of Table 6, once on Day 0, dogs; for Percent reduction (efficacy) against fleas: Table 6 soft chew, treated once on Day 0, dogs
Protocol: (§3) Sixteen beagles were studied to determine the effectiveness of a soft chewable veterinary composition comprising Compound A against induced infestations of Dermacentor variabilis and Ctenocephalides felis.
(§4) Four Treatment Groups containing four dogs each were formed. Dogs in Group 1 were untreated. […] All dogs were treated once on Day 0.
(§5) All dogs were infested with approximately 100 C. felis on Days −1, 8, 15, 22, 29, 35, 43, 57 and 71. All dogs were also infested with approximately 50 D. variabilis on Days −1, 7, 14, 21, 28, 34 and 42. Both ticks and fleas were counted upon removal on Days 2, 9, 16, 23, 30, 36 and 44. Fleas were counted upon removal for all Treatment Groups on Days 58 and 72.

Amblyomma americanum = assay: Long lasting efficacy against A. americanum on dogs (Example 6, Table 52); type: in vivo
Protocol: as §1, §2

[2] = test system: ticks (Dermacentor variabilis); assay: Efficacy of soft chews against induced tick infestations on dogs (Example 2); type: in vivo; details: for % Reduction Ticks: soft chew of Table 6, once on Day 0, dogs; for Percent reduction against ticks: Table 6 soft chew, treated once on Day 0, dogs
Protocol: as §3, §4, §5

Ixodes holocyclus = assay: Efficacy against induced Ixodes holocyclus infestations on dogs (Example 5)
[3] = Group 2, approximately 1.5 mg/kg, Day 2
[4] = Group 2, approximately 1.5 mg/kg, Day 9
[5] = Group 2, approximately 1.5 mg/kg, Day 16
[6] = Group 2, approximately 1.5 mg/kg, Day 23
[7] = Group 2, approximately 1.5 mg/kg, Day 30
[8] = Group 2, approximately 1.5 mg/kg, Day 36
[9] = Group 2, approximately 1.5 mg/kg, Day 44
[10] = Group 3, approximately 2.5 mg/kg, Day 2
[11] = Group 3, approximately 2.5 mg/kg, Day 9
[12] = Group 3, approximately 2.5 mg/kg, Day 16
[13] = Group 3, approximately 2.5 mg/kg, Day 23
[14] = Group 3, approximately 2.5 mg/kg, Day 30
[15] = Group 3, approximately 2.5 mg/kg, Day 36
[16] = Group 3, approximately 2.5 mg/kg, Day 44
[17] = Group 4, approximately 3.5 mg/kg, Day 2
[18] = Group 4, approximately 3.5 mg/kg, Day 9
[19] = Group 4, approximately 3.5 mg/kg, Day 16
[20] = Group 4, approximately 3.5 mg/kg, Day 23
[21] = Group 4, approximately 3.5 mg/kg, Day 30
[22] = Group 4, approximately 3.5 mg/kg, Day 36
[23] = Group 4, approximately 3.5 mg/kg, Day 44
[24] = through and including Day 30, all treatment groups (approx. 1.5, 2.5 or 3.5 mg/kg)

Structure (SMILES): O=C(CNC(=O)c1ccc(C2=NOC(c3cc(Cl)cc(C(F)(F)F)c3)(C(F)(F)F)C2)c2ccccc12)NCC(F)(F)F (stereo not drawn) [Compound A, 4-[5-[3-chloro-5-(trifluoromethyl)phenyl]-4,5-dihydro-5-(trifluoromethyl)-3-isoxazolyl]-N-[2-oxo-2-[(2,2,2-trifluoroethyl)amino]ethyl]-1-naphthalenecarboxamide]
- % Reduction Ticks (Dermacentor variabilis; Group 6, composition of Table 30, about 20 mg/kg once on Day 0, dogs, Day 2): 100.0%
- % Reduction Ticks (Dermacentor variabilis; Group 6, composition of Table 30, about 20 mg/kg once on Day 0, dogs, Day 44): 100.0%
- % Reduction Ticks (Dermacentor variabilis; Group 6, composition of Table 30, about 20 mg/kg once on Day 0, dogs, Day 58): 99.5%
- % Reduction Ticks (Dermacentor variabilis; Group 6, composition of Table 30, about 20 mg/kg once on Day 0, dogs, Day 72): 100.0%
- % Reduction Ticks (Dermacentor variabilis; Group 6, composition of Table 30, about 20 mg/kg once on Day 0, dogs, Day 79): 98.8%
- % Reduction Ticks (Dermacentor variabilis; Group 6, composition of Table 30, about 20 mg/kg once on Day 0, dogs, Day 86): 100.0%
- % Reduction Ticks (Dermacentor variabilis; Group 6, composition of Table 30, about 20 mg/kg once on Day 0, dogs, Day 93): 98.9%
- % Reduction Ticks (Dermacentor variabilis; Group 6, composition of Table 30, about 20 mg/kg once on Day 0, dogs, Day 100): 99.4%
- % Reduction Ticks (Dermacentor variabilis; Group 6, composition of Table 30, about 20 mg/kg once on Day 0, dogs, Day 107): 99.4%
- % Reduction Ticks (Dermacentor variabilis; Group 7, composition of Table 32, about 20 mg/kg once on Day 0, dogs, Day 2): 100.0%
- % Reduction Ticks (Dermacentor variabilis; Group 7, composition of Table 32, about 20 mg/kg once on Day 0, dogs, Day 44): 100.0%
- % Reduction Ticks (Dermacentor variabilis; Group 7, composition of Table 32, about 20 mg/kg once on Day 0, dogs, Day 58): 100.0%
- % Reduction Ticks (Dermacentor variabilis; Group 7, composition of Table 32, about 20 mg/kg once on Day 0, dogs, Day 72): 100.0%
- % Reduction Ticks (Dermacentor variabilis; Group 7, composition of Table 32, about 20 mg/kg once on Day 0, dogs, Day 79): 100.0%
- % Reduction Ticks (Dermacentor variabilis; Group 7, composition of Table 32, about 20 mg/kg once on Day 0, dogs, Day 86): 100.0%
- % Reduction Ticks (Dermacentor variabilis; Group 7, composition of Table 32, about 20 mg/kg once on Day 0, dogs, Day 93): 97.9%
- % Reduction Ticks (Dermacentor variabilis; Group 7, composition of Table 32, about 20 mg/kg once on Day 0, dogs, Day 100): 100.0%
- % Reduction Ticks (Dermacentor variabilis; Group 7, composition of Table 32, about 20 mg/kg once on Day 0, dogs, Day 107): 100.0%
- % Reduction Fleas [1, 3]: 100.0%
- % Reduction Fleas [1, 4]: 100.0%
- % Reduction Fleas [1, 5]: 100.0%
- % Reduction Fleas [1, 6]: 100.0%
- % Reduction Fleas [1, 7]: 100.0%
- % Reduction Fleas [1, 8]: 99.2%
- % Reduction Fleas [1, 9]: 97.8%
- % Reduction Fleas ([1]; Group 2, approximately 1.5 mg/kg, Day 58): 89.4%
- % Reduction Fleas ([1]; Group 2, approximately 1.5 mg/kg, Day 72): 79.6%
- % Reduction Fleas [1, 10]: 100.0%
- % Reduction Fleas [1, 11]: 100.0%
- % Reduction Fleas [1, 12]: 100.0%
- % Reduction Fleas [1, 13]: 100.0%
- % Reduction Fleas [1, 14]: 100.0%
- % Reduction Fleas [1, 15]: 100.0%
- % Reduction Fleas [1, 16]: 99.3%
- % Reduction Fleas ([1]; Group 3, approximately 2.5 mg/kg, Day 58): 96.7%
- % Reduction Fleas ([1]; Group 3, approximately 2.5 mg/kg, Day 72): 94.4%
- % Reduction Fleas [1, 17]: 100.0%
- % Reduction Fleas [1, 18]: 100.0%
- % Reduction Fleas [1, 19]: 100.0%
- % Reduction Fleas [1, 20]: 100.0%
- % Reduction Fleas [1, 21]: 100.0%
- % Reduction Fleas [1, 22]: 99.6%
- % Reduction Fleas [1, 23]: 98.3%
- % Reduction Fleas ([1]; Group 4, approximately 3.5 mg/kg, Day 58): 95.2%
- % Reduction Fleas ([1]; Group 4, approximately 3.5 mg/kg, Day 72): 80.6%
- Percent reduction (efficacy) against fleas ([1]; through Day 44, all groups (approx. 1.5, 2.5 or 3.5 mg/kg)): above 95%
- Percent reduction (efficacy) against fleas ([1]; through Day 58, Groups 3 and 4): above 95%
- Percent reduction (efficacy) against fleas [1, 24]: 100%
- % Reduction Ticks (Amblyomma americanum; Group 3, composition of Table 30, about 20 mg/kg once on Day 0, dogs, Day 2): 100.0%
- % Reduction Ticks (Amblyomma americanum; Group 3, composition of Table 30, about 20 mg/kg once on Day 0, dogs, Day 44): 98.4%
- % Reduction Ticks (Amblyomma americanum; Group 3, composition of Table 30, about 20 mg/kg once on Day 0, dogs, Day 58): 98.8%
- % Reduction Ticks (Amblyomma americanum; Group 3, composition of Table 30, about 20 mg/kg once on Day 0, dogs, Day 72): 99.5%
- % Reduction Ticks (Amblyomma americanum; Group 3, composition of Table 30, about 20 mg/kg once on Day 0, dogs, Day 79): 94.4%
- % Reduction Ticks (Amblyomma americanum; Group 3, composition of Table 30, about 20 mg/kg once on Day 0, dogs, Day 86): 98.9%
- % Reduction Ticks (Amblyomma americanum; Group 3, composition of Table 30, about 20 mg/kg once on Day 0, dogs, Day 93): 99.5%
- % Reduction Ticks (Amblyomma americanum; Group 3, composition of Table 30, about 20 mg/kg once on Day 0, dogs, Day 100): 95.6%
- % Reduction Ticks (Amblyomma americanum; Group 3, composition of Table 30, about 20 mg/kg once on Day 0, dogs, Day 107): 93.4%
- % Reduction Ticks (Amblyomma americanum; Group 4, composition of Table 31, about 20 mg/kg once on Day 0, dogs, Day 2): 100.0%
- % Reduction Ticks (Amblyomma americanum; Group 4, composition of Table 31, about 20 mg/kg once on Day 0, dogs, Day 44): 99.4%
- % Reduction Ticks (Amblyomma americanum; Group 4, composition of Table 31, about 20 mg/kg once on Day 0, dogs, Day 58): 99.4%
- % Reduction Ticks (Amblyomma americanum; Group 4, composition of Table 31, about 20 mg/kg once on Day 0, dogs, Day 72): 97.7%
- % Reduction Ticks (Amblyomma americanum; Group 4, composition of Table 31, about 20 mg/kg once on Day 0, dogs, Day 79): 88.6%
- % Reduction Ticks (Amblyomma americanum; Group 4, composition of Table 31, about 20 mg/kg once on Day 0, dogs, Day 86): 97.5%
- % Reduction Ticks (Amblyomma americanum; Group 4, composition of Table 31, about 20 mg/kg once on Day 0, dogs, Day 93): 97.7%
- % Reduction Ticks (Amblyomma americanum; Group 4, composition of Table 31, about 20 mg/kg once on Day 0, dogs, Day 100): 90.9%
- % Reduction Ticks (Amblyomma americanum; Group 5, composition of Table 32, about 20 mg/kg once on Day 0, dogs, Day 2): 100.0%
- % Reduction Ticks (Amblyomma americanum; Group 5, composition of Table 32, about 20 mg/kg once on Day 0, dogs, Day 44): 100.0%
- % Reduction Ticks (Amblyomma americanum; Group 5, composition of Table 32, about 20 mg/kg once on Day 0, dogs, Day 58): 99.5%
- % Reduction Ticks (Amblyomma americanum; Group 5, composition of Table 32, about 20 mg/kg once on Day 0, dogs, Day 72): 100.0%
- % Reduction Ticks (Amblyomma americanum; Group 5, composition of Table 32, about 20 mg/kg once on Day 0, dogs, Day 79): 98.8%
- % Reduction Ticks (Amblyomma americanum; Group 5, composition of Table 32, about 20 mg/kg once on Day 0, dogs, Day 86): 97.8%
- % Reduction Ticks (Amblyomma americanum; Group 5, composition of Table 32, about 20 mg/kg once on Day 0, dogs, Day 93): 98.2%
- % Reduction Ticks (Amblyomma americanum; Group 5, composition of Table 32, about 20 mg/kg once on Day 0, dogs, Day 100): 87.8%
- % Reduction Ticks [2, 3]: 100.0%
- % Reduction Ticks [2, 4]: 99.2%
- % Reduction Ticks [2, 5]: 100.0%
- % Reduction Ticks [2, 6]: 92.1%
- % Reduction Ticks [2, 7]: 99.5%
- % Reduction Ticks [2, 8]: 82.4%
- % Reduction Ticks [2, 9]: 68.3%
- % Reduction Ticks [2, 10]: 100.0%
- % Reduction Ticks [2, 11]: 100.0%
- % Reduction Ticks [2, 12]: 99.1%
- % Reduction Ticks [2, 13]: 97.2%
- % Reduction Ticks [2, 14]: 94.3%
- % Reduction Ticks [2, 15]: 96.9%
- % Reduction Ticks [2, 16]: 88.1%
- % Reduction Ticks [2, 17]: 100.0%
- % Reduction Ticks [2, 18]: 100.0%
- % Reduction Ticks [2, 19]: 99.5%
- % Reduction Ticks [2, 20]: 100.0%
- % Reduction Ticks [2, 21]: 98.1%
- % Reduction Ticks [2, 22]: 91.9%
- % Reduction Ticks [2, 23]: 84.7%
- Percent reduction against ticks ([2]; through Day 36, Groups 3 and 4): > 90%
- Percent reduction against ticks [2, 24]: > 90%
- Percent efficacy (Ixodes holocyclus; 24 hours post infestation on Days 1, 8, 15 and 22, Table 10 soft chew, at least 2.5 mg/kg once on Day 0): at least 95.8%
- Percent efficacy (Ixodes holocyclus; 48 hours post infestation, all time points measured, once on Day 0, at least 2.5 mg/kg Compound A (Table 10), combination plus at least 0.5 mg/kg milbemycin oxime (Table 13)): at least 98.7%
- Percent efficacy (Ixodes holocyclus; 72 hours post infestation, all time points measured, once on Day 0, at least 2.5 mg/kg Compound A (Table 10), combination plus at least 0.5 mg/kg milbemycin oxime (Table 13)): at least 99.2%
